pIC50: −log10 of the molar value.
Each molecule was assayed against hOGG1 (Homo sapiens, UniProt O15527) (assay: Biochemical fluorescence assay to measure enzymatic activity of hOGG1 (OGG1/APEX IC50)). Details: 1 nM OGG1+2 nM APEX+6 nM dsDNA (8-oxo-dG substrate); pH 7.5; RT 40 min; read-out: OGG1/APEX IC50.
Set-up: Protein His-hOGG1 (12-323) was prepared; His (N); host or cells: E. coli
How it was run: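 His-hOGG1 (12-323, E. coli) at 1 nM with 2 nM hAPE1/APEX1, preincubated 20 min RT with compound. Then 6 nM 8-oxo-dG dsDNA substrate added, 40 min at RT in Tris pH 7.5, 100 mM KCl. TAMRA fluorescence (Ex520/Em600) converted to % inhibition vs controls; IC50 from 3-parameter fit of 10-point curve.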

hOGG1, sequence (O15527 12-323): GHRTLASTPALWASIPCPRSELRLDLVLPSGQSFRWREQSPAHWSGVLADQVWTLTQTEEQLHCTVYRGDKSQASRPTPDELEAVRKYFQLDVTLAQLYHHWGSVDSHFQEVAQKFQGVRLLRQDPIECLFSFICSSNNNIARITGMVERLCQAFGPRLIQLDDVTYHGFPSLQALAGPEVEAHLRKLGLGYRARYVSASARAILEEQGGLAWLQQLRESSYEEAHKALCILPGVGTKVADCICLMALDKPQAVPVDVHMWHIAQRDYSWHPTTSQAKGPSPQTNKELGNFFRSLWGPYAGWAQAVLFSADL

Row | SMILES | pIC50
1 | COc1cc(NC(=O)[C@H]2CC[C@@H](N3Cc4c(CF)cccc4C3=O)CC2)ccc1C [Example 166, (1s,4s)-4-(4-(Fluoromethyl)-1-oxoisoindolin-2-yl)-N-(3-methoxy-4-methylphenyl)cyclohexanecarboxamide] | 5.00 to 6.00
2 | COc1cc(NC(=O)[C@H]2CC[C@@H](N3Cc4c(C)cccc4C3=O)CC2)ccc1Cl [Example 223, (1s,4s)-N-(4-Chloro-3-methoxyphenyl)-4-(4-methyl-1-oxoisoindolin-2-yl)cyclohexanecarboxamide] | 6.00 to 7.00
3 | COc1cc(NC(=O)[C@H]2CC[C@@H](N3Cc4c(Cl)cccc4NC3=O)CC2)ccc1C [Example 68, (1s,4s)-4-(5-chloro-2-oxo-1,2-dihydroquinazolin-3(4H)-yl)-N-(3-methoxy-4-methylphenyl)cyclohexanecarboxamide] | 6.00 to 7.00
4 | COc1cc(NC(=O)[C@H]2CC[C@@H](N3Cc4c(F)cccc4NC3=O)CC2)ccc1C [Example 75, (1s,4s)-4-(5-fluoro-2-oxo-1,2-dihydroquinazolin-3(4H)-yl)-N-(3-methoxy-4-methylphenyl)cyclohexanecarboxamide] | 6.00 to 7.00
5 | COc1cc(NC(=O)[C@H]2CC[C@@H](N3Cc4c(cccc4C(F)F)C3=O)CC2)ccc1C [Example 172, (1s,4s)-4-(4-(Difluoromethyl)-1-oxoisoindolin-2-yl)-N-(3-methoxy-4-methylphenyl)cyclohexanecarboxamide] | 5.00 to 6.00
6 | Cn1c(NC(=O)[C@H]2CC[C@@H](N3Cc4c(Br)cccc4C3=O)CC2)nc2ccccc21 [Example 190, (1s,4s)-4-(4-Bromo-1-oxoisoindolin-2-yl)-N-(1-methyl-1H-benzo[d]imidazol-2-yl)cyclohexanecarboxamide] | 5.00 to 6.00
7 | Cc1cc(NCCN(C)C)cc2c1CN([C@H]1CC[C@@H](C(=O)Nc3ccn(CCO)n3)CC1)C2=O [Example 130, (1s,4s)-4-(6-((2-(Dimethylamino)ethyl)amino)-4-methyl-1-oxoisoindolin-2-yl)-N-(1-(2-hydroxyethyl)-1H-pyrazol-3-yl)cyclohexane-1-carboxamide] | 5.00 to 6.00
8 | COc1cc(NC(=O)[C@H]2CC[C@@H](N3Cc4c(Br)cncc4C3=O)CC2)ccc1C [Example 183, (1s,4s)-4-(7-bromo-3-oxo-1H-pyrrolo[3,4-c]pyridin-2(3H)-yl)-N-(3-methoxy-4-methylphenyl)cyclohexanecarboxamide] | 6.00 to 7.00
9 | COc1cc(NC(=O)[C@H]2CC[C@@H](N3Cc4c(Br)cc(NCC(C)O)cc4C3=O)CC2)ccc1C (stereo partly shown) [Example 179, (1s,4s)-4-(4-Bromo-6-(2-hydroxypropylamino)-1-oxoisoindolin-2-yl)-N-(3-methoxy-4-methylphenyl)cyclohexanecarboxamide] | 6.00 to 7.00

Results, then the molecule that gave them:

Row | pIC50 | SMILES
10 | > 7.00 | COc1cc(NC(=O)[C@H]2CC[C@@H](N3Cc4c(C)cc(NCC5CNC5)cc4C3=O)CC2)ccc1C [Example 195, (1s,4s)-4-(6-(Azetidin-3-ylmethylamino)-4-methyl-1-oxoisoindolin-2-yl)-N-(3-methoxy-4-methylphenyl)cyclohexanecarboxamide]
11 | > 7.00 | COc1ccc(NC(=O)[C@H]2CC[C@@H](N3Cc4c(C)cc(NCCN(C)C)cc4C3=O)CC2)cc1F [Example 257, (1s,4s)-4-(6-(2-(Dimethylamino)ethylamino)-4-methyl-1-oxoisoindolin-2-yl)-N-(3-fluoro-4-methoxyphenyl)cyclohexanecarboxamide]
12 | > 7.00 | COc1cc(NC(=O)[C@H]2CC[C@@H](N3Cc4c(C)ccc(CO)c4NC3=O)CC2)ccc1C [Example 54, (1s,4s)-4-(8-(Hydroxymethyl)-5-methyl-2-oxo-1,2-dihydroquinazolin-3(4H)-yl)-N-(3-methoxy-4-methylphenyl)cyclohexanecarboxamide]
13 | > 7.00 | COc1cc(NC(=O)[C@H]2CC[C@@H](N3Cc4c(C)cc(C=O)cc4NC3=O)CC2)ccc1C [Example 78, (1s,4s)-4-(7-formyl-5-methyl-2-oxo-1,2-dihydroquinazolin-3(4H)-yl)-N-(3-methoxy-4-methylphenyl)cyclohexanecarboxamide]

Reference: US20260317356A1, “SMALL MOLECULE MODULATORS OF OGG1” (AZKARRA THERAPEUTICS, INC., priority 2023, published 2026)
